Experiments:
[1] = molecular target: T1, CCK-B receptors on small cell lung cancer cell lines (Homo sapiens, UniProt P32239); experiment: Measurement of [Ca++]i changes in NCI-H345 and H209 cell lines (indo-1 fluorescence); assay type: cell-based; conditions: read-out: Intrinsic Activity Relative to CCK-8
T1 construct: endogenous in cells; host or cells: NCI-H345 and H209 small cell lung cancer cells
T1 sequence (P32239 1-447): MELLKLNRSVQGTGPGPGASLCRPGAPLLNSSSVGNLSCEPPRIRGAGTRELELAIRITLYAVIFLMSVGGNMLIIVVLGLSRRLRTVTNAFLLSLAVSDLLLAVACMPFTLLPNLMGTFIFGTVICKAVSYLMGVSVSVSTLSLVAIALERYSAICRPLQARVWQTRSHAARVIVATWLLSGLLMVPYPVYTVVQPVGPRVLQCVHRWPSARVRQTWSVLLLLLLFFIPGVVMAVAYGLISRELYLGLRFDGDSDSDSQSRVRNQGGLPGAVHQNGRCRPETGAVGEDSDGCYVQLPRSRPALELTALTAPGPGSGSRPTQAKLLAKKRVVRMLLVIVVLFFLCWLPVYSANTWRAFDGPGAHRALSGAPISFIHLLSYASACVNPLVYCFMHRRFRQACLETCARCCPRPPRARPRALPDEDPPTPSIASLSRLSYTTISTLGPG
Method: Protocol for Measuring [Ca++]i Changes in NCI-H345 and H209 Cell Lines
Culture conditions were as described (D.G. Yoder, T.W. Moody, Peptides, 8, 103 (1987), except that the medium was modified to RPMI 1640 with 2.5% fetal bovine serum (heat inactivated), 5µg/l sodium selenite, 5 mg/l human transferrin, 5 mg/l insulin, penicillin (100 U/l) and streptomycin (100 µg/l). To measure intracellular Ca²⁺, cells were loaded with 1 µM of indo-1,AM, for 60 min at 37°C. The cells were centrifuged at 750 x g for 5 min and resuspended in 40 mL Buffer F (Dulbecco's phosphate buffered saline containing 0.1% glucose, pH 7.4). The cells were counted then twice washed by centrifugation. The final pellet was resuspended (approximately 1 x 10⁶ cells/mL) in Buffer F. The cells were thermally equilibrated in a thermostated cuvette (37°C) for 2 min prior to base-line fluorescence measurement. Fluorescence measurements were made with an SLM 8000C spectrofluorimeter equipped with magnetic microstirrer and polarizing filters. Measurements with indo-1-loaded cells were obtained at excitation wavelength of 350 nm and emission wavelength of 480 and 405 nM and the time interval for the measurements was 0.5 sec.

[2] = molecular target: T2, CCK receptors (Cavia porcellus, UniProt Q63931); experiment: Radioligand binding ([125I]Bolton-Hunter CCK8) in guinea pig pancreatic membranes; conditions: displacement of [125I]BH-CCK8, pancreatic membranes, 37°C for 150 min, Hill analysis; read-out: IC₅₀ (uM) pancreas
T2 construct: Cortical and pancreatic membranes were prepared as described; from tissue; host or cells: guinea pig pancreas membranes
T2 sequence (Q63931 1-430): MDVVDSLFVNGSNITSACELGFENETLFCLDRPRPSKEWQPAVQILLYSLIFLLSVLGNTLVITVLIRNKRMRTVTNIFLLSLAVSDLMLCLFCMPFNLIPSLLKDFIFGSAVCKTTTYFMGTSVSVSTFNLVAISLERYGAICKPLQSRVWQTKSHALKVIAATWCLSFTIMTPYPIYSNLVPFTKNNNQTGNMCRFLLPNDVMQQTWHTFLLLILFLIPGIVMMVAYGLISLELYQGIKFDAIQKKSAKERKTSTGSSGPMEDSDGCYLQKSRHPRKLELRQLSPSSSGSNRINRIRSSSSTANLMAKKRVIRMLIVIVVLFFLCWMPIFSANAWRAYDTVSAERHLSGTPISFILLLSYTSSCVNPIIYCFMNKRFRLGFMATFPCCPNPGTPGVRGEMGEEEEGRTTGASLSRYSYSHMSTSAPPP
Method: EGTA, HEPES, BSA were purchased from Sigma Chemical Co. (St. Louis, MO). […] Male ginea pigs, 250 to 325 g, were obtained from Scientific Small Animal Laboratory and Farm (Arlington Heights, IL). Collangenase, code CLSPA was purchased from Worthington (Frehold, NJ).
In brief, pancreas and cortex were removed and rinsed with ice-cold saline. Visible fat and connective tissues were removed from the pancreas. Tissues were weighed and homogenized in approximately 25 mL of ice-cold 50 mM Tris-HCl buffer, pH 7.4 at 4°C with a Brinkman Polytron for 30 sec, setting 7. The homogenates were centrifuged for 10 min at 1075 x g and the pellet was discarded. The supernantants were saved and centrifuged at 38,730 x g for 20 min. The resultant pellets were rehomogenized in 25 mL of 50 mM Tris-HCl buffer with a Teflon-glass homogenizer, 5 up and down strokes. The homogenates were centrifuged again at 38,730 x g for 20 min. The pellets were then resuspended in 20 mM HEPES, containing 1 mM EGTA, 118 mM NaCl, 4.7 mM KCl, 5mM MgCl₂, 100 uM bestatin, 3 uM phosphoramidon, pH 7.4 at 22°C with a Teflon-glass homogenizer, 15 up and down strokes. The resuspension volume used for the cortex was 15 mL per g of original wet weight and 60 mL per g for pancreas.
The final BSA concentration was 0.1%. The cortical tissues were incubated at 30°C for 150 min. and pancreatic tissues were incubated at 37°C for 150 min. Incubations were terminated by filtration using Skatron Cell Harvester and SS32 microfiber filter mats. […] IC₅₀s were determined from the Hill analysis.

Emax [1]: 103% | IC50 [2]: 3.5 µM
Compound: CCC[C@H]1CCN(C(=O)[C@@H]2Cc3c[nH]c4cccc(c34)CC(=O)N2)[C@@H]1C(=O)N[C@@H](CC(=O)O)C(=O)N[C@@H](Cc1ccccc1)C(N)=O [Example 48, Ctp-Tpp-Asp-Phe-NH₂]

Reference: patent publication EP0405506A1, “Tetrapeptide type-B CCK receptor ligands” (ABBOTT LABORATORIES, priority 1989, dated 1991)
